Experiment [1] deals with T1, Piezo1 (human cardiac fibroblasts, endogenous) (Homo sapiens, UniProt Q92508).
T1 construct: endogenous full-length channel in cultured human atrial cardiac fibroblasts; Yoda1 response reduced by Piezo1 siRNA
Description: Fura-2 intracellular Ca2+ assay, 96-well plate reader. The experiment is classed as cell-based. The following applies: activator (agonist); native human cardiac fibroblasts; 2.5 mM probenecid, 1.5 mM CaCl2, pH 7.4; estimate, Yoda1 limited to 10 μM by solubility.

A further experiment concerns the target T2, mouse Piezo1 (Mus musculus, UniProt E2JF22).
T2 construct: the Dooku1 and ruthenium red rows are from native C57BL/6J cardiac fibroblasts
Described as above. The experiment is classed as cell-based.

T2 sequence (E2JF22 whole entry): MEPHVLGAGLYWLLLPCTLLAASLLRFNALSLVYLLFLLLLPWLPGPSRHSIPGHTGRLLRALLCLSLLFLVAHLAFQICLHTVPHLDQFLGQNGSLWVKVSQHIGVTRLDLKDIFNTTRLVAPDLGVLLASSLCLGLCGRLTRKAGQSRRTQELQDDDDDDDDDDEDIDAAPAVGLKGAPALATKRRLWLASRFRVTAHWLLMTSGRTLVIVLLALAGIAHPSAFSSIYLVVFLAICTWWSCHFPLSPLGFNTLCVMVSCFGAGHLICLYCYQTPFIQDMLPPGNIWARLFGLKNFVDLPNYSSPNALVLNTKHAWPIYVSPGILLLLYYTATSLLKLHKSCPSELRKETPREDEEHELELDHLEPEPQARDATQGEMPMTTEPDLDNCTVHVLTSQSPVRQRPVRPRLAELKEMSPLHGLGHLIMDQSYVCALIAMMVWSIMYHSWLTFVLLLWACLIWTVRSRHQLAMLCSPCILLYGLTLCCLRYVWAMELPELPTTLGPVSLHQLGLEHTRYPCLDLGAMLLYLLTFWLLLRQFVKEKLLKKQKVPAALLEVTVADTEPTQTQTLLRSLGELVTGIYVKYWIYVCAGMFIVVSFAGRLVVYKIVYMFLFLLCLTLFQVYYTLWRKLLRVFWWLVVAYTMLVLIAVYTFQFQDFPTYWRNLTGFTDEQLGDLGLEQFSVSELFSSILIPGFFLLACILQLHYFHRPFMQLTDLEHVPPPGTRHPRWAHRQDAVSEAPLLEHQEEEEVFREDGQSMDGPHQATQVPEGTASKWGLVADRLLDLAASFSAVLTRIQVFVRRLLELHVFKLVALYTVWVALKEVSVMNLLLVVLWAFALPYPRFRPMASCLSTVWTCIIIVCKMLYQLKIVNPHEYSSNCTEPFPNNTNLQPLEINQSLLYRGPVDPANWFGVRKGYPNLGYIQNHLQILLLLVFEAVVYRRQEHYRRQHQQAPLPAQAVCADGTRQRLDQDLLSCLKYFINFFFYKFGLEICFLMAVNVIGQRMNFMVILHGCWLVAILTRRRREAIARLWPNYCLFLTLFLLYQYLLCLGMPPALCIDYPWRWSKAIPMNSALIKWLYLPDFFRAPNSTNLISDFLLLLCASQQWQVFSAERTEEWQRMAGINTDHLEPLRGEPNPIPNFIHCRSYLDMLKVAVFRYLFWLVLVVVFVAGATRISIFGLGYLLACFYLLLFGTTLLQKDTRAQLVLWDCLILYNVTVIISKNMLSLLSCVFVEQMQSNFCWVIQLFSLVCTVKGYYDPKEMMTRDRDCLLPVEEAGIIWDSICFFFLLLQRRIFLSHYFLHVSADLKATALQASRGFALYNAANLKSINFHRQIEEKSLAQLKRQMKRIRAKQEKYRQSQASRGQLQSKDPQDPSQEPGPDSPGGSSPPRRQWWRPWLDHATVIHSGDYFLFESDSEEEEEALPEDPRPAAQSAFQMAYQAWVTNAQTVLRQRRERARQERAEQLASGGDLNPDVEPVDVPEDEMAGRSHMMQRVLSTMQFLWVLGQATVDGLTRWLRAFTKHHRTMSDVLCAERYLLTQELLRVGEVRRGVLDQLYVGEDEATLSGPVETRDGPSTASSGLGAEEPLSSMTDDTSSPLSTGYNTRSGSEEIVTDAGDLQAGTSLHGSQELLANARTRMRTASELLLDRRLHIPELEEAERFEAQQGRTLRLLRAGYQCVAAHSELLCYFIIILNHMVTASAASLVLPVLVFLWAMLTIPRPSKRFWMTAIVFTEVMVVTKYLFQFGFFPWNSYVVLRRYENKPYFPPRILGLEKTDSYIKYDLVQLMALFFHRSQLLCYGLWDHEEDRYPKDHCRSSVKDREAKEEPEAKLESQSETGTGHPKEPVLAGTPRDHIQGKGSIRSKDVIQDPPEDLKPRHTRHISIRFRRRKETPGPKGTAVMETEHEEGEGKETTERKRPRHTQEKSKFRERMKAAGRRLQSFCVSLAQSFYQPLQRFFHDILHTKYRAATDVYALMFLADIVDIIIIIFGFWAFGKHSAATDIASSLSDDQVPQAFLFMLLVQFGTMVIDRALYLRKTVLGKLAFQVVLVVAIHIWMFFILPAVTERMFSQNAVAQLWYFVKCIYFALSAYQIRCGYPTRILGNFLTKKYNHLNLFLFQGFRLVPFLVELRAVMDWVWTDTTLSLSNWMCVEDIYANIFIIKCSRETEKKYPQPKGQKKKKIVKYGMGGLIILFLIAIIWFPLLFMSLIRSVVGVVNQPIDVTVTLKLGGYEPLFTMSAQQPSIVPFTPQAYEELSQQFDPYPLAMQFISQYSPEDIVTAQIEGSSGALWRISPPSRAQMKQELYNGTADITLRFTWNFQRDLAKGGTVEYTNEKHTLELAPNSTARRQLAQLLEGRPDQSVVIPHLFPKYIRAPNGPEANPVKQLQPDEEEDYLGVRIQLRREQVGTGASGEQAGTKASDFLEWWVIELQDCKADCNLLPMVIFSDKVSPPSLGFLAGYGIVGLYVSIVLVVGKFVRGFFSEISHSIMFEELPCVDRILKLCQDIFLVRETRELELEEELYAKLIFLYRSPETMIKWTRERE
T1 sequence (Q92508 whole entry): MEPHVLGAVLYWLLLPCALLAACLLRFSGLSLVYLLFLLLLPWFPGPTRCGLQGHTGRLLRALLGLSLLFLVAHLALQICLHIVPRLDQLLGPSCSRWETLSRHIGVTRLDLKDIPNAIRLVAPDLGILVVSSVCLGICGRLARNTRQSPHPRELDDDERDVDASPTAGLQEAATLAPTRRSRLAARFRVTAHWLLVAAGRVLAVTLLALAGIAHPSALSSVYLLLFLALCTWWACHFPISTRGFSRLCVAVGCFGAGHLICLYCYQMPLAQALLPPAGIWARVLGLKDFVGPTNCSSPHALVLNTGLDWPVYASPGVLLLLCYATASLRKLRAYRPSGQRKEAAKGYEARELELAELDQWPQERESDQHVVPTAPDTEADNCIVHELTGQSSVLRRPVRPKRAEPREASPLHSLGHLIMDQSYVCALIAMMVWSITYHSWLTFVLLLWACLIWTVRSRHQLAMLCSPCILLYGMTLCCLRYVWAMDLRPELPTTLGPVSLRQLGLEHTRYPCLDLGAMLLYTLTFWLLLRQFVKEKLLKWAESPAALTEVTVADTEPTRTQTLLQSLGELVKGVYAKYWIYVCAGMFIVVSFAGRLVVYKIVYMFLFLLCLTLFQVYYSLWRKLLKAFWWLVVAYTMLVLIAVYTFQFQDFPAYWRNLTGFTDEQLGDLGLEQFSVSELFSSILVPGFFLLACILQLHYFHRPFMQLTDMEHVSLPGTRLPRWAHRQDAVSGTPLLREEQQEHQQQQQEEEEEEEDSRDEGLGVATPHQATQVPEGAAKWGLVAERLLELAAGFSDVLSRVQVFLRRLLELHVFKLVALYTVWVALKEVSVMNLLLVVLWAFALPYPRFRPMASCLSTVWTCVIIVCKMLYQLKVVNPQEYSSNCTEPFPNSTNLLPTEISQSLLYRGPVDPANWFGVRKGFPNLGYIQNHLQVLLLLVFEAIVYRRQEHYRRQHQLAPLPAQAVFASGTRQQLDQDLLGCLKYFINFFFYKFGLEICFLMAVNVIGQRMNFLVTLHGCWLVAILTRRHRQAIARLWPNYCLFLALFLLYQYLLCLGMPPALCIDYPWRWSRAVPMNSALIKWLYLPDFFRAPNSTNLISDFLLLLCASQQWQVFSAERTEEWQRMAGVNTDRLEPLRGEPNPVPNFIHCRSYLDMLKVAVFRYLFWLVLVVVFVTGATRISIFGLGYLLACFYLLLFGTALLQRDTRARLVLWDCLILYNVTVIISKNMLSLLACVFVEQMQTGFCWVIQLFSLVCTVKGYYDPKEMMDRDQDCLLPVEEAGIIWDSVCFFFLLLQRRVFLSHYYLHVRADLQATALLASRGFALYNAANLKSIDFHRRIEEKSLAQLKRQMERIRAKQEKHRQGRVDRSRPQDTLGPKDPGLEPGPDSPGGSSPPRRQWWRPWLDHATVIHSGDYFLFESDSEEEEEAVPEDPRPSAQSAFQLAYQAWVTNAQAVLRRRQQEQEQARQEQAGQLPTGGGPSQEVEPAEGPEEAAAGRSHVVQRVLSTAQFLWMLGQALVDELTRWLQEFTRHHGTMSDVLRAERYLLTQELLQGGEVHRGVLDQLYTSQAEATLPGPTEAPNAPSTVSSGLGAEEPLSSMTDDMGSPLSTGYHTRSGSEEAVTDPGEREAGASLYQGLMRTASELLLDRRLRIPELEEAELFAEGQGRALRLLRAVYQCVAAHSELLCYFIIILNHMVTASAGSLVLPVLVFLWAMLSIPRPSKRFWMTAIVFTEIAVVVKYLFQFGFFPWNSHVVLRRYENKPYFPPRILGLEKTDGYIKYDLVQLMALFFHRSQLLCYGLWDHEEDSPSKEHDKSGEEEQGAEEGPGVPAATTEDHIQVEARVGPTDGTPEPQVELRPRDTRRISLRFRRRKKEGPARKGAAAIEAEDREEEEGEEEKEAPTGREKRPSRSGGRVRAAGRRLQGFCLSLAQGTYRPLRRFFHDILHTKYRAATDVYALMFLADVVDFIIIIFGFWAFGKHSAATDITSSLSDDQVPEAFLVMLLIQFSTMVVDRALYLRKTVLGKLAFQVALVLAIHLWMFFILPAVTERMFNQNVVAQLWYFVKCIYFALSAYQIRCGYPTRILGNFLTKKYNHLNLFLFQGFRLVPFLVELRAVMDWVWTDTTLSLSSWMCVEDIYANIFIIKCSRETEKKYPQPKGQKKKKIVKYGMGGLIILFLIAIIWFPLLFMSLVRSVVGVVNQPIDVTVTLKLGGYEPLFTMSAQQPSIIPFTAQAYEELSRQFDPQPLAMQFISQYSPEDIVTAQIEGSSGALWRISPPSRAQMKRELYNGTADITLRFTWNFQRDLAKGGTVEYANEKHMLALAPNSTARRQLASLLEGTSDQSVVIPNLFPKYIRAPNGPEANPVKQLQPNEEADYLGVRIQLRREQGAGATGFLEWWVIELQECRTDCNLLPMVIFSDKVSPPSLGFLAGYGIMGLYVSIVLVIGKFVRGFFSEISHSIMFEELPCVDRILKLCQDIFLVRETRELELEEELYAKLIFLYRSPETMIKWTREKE

For orientation: EC50 means the concentration that produces a half-maximal response. With `Clc1cccc(Cl)c1CSc1nnc(-c2cnccn2)s1` [Yoda1], the EC50 was 710 nM in experiment [1] and 330 nM at mouse Piezo1.

The record behind these values is PMC6873183, “Mechanically activated Piezo1 channels of cardiac fibroblasts stimulate p38 mitogen-activated protein kinase activity and interleukin-6 secretion” (The Journal of Biological Chemistry, 2019).
